Laboratory results from article PMC8213057, “Targeting ALK2: An Open Science Approach to Developing Therapeutics for the Treatment of Diffuse Intrinsic Pontine Glioma” (Journal of Medicinal Chemistry, 2020).

Key:
MST1/STK4 = biological target: T1, MST1/STK4 (Homo sapiens, UniProt Q13043); assay: biochemical; conditions: read-out: % enzyme activity, 1 μM; Run 1, Run 2
T1 sequence (Q13043 1-487): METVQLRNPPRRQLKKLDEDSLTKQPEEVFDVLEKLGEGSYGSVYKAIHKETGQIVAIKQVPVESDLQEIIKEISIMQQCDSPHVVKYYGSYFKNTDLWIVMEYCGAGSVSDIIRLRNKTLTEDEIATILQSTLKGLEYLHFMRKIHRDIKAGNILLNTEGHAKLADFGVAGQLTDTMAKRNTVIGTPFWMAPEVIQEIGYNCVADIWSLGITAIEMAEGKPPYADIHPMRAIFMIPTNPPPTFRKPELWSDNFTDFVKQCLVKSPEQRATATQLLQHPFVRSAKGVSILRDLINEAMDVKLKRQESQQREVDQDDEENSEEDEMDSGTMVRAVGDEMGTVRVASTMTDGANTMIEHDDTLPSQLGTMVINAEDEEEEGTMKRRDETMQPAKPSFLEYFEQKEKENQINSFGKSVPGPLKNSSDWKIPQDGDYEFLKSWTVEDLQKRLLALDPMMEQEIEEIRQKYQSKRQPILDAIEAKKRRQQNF

AURORA B = AURORA B (Homo sapiens, UniProt Q96GD4); conditions: 1 μM; Run 1, Run 2
VRK2 = VRK2 (Homo sapiens, UniProt Q86Y07); assay: biochemical; conditions: read-out: % enzyme activity, 1 μM; Run 1, Run 2
PASK = PASK (Homo sapiens, UniProt Q96RG2); conditions: 1 μM; Run 1, Run 2
TYK1/LTK = TYK1/LTK (Homo sapiens, UniProt P29376); conditions: 1 μM; Run 1, Run 2
FER = FER (Homo sapiens, UniProt P16591); assay: biochemical; conditions: read-out: % enzyme activity, 1 μM; Run 1, Run 2
TYRO3/SKY = biological target: T2, TYRO3/SKY (Homo sapiens, UniProt Q06418); conditions: 1 μM; Run 1, Run 2
T2 sequence (Q06418 41-890): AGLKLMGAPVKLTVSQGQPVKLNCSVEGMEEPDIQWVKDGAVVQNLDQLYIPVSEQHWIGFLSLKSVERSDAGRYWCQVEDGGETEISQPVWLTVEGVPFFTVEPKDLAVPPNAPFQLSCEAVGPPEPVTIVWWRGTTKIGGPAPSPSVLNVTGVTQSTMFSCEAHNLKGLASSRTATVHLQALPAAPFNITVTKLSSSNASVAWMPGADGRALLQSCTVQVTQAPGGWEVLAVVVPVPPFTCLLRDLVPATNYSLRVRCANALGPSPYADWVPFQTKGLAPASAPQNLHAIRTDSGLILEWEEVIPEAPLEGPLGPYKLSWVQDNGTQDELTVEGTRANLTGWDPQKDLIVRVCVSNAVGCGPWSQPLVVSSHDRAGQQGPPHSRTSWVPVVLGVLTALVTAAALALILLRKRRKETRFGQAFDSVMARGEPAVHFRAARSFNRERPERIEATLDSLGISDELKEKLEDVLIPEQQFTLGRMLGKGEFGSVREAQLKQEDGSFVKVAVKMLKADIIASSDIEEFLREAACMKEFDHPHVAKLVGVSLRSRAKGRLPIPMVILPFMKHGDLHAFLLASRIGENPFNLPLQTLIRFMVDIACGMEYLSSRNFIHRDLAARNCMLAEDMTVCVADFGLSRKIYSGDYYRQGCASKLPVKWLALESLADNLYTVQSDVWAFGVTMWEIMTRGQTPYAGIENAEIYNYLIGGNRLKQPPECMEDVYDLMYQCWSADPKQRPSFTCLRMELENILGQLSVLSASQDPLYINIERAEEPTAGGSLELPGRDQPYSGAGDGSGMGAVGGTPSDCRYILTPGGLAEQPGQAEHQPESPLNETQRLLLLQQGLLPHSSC

MEKK1 = MEKK1 (Homo sapiens, UniProt Q13233); assay: biochemical; conditions: read-out: % enzyme activity, 1 μM; Run 1, Run 2
SRMS = SRMS (Homo sapiens, UniProt Q9H3Y6); conditions: 1 μM; Run 1, Run 2
MUSK = biological target: T3, MUSK (Homo sapiens, UniProt O15146); conditions: 1 μM; Run 1, Run 2
T3 sequence (O15146 24-869): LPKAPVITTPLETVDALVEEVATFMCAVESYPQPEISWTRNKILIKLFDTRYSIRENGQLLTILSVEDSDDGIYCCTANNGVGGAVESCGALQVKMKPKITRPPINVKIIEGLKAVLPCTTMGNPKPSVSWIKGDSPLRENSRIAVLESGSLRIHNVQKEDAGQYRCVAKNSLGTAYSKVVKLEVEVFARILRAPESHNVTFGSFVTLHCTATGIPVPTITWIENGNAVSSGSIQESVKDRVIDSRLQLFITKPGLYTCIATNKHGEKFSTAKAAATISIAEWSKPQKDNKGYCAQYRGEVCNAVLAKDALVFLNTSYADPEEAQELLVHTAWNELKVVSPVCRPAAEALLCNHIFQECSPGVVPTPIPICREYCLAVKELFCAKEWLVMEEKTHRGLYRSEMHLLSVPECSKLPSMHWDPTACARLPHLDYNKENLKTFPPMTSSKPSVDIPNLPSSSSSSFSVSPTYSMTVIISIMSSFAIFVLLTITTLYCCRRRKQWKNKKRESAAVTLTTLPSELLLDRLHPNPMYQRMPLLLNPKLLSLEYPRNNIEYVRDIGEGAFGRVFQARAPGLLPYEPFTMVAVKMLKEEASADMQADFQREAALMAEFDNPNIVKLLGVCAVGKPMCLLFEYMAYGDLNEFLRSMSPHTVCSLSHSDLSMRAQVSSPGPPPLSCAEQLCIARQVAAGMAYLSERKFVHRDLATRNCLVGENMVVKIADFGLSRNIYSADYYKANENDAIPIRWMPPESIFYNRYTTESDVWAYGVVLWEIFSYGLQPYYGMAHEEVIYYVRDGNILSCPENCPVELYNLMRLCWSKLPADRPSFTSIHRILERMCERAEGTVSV

CAMK1g = CAMK1g (Homo sapiens, UniProt Q96NX5); conditions: 1 μM; Run 1, Run 2
MARK1 = MARK1 (Homo sapiens, UniProt Q9P0L2); conditions: 1 μM; Run 1, Run 2
TESK1 = TESK1 (Homo sapiens, UniProt Q15569); assay: biochemical; conditions: read-out: % enzyme activity, 1 μM; Run 1, Run 2
CDK8/cyclin C = CDK8/cyclin C (Homo sapiens, UniProt P49336); conditions: 1 μM; Run 1, Run 2

AURORA B, sequence (Q96GD4 whole entry): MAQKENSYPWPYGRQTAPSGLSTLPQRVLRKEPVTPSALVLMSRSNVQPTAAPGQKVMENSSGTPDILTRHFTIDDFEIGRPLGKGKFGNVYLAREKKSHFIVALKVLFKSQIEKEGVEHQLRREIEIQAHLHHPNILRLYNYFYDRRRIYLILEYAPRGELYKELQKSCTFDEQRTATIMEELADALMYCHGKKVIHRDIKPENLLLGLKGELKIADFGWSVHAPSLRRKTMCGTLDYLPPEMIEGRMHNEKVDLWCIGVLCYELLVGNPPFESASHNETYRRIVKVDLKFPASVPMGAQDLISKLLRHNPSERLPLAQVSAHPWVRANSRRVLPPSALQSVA
MARK1, sequence (Q9P0L2 whole entry): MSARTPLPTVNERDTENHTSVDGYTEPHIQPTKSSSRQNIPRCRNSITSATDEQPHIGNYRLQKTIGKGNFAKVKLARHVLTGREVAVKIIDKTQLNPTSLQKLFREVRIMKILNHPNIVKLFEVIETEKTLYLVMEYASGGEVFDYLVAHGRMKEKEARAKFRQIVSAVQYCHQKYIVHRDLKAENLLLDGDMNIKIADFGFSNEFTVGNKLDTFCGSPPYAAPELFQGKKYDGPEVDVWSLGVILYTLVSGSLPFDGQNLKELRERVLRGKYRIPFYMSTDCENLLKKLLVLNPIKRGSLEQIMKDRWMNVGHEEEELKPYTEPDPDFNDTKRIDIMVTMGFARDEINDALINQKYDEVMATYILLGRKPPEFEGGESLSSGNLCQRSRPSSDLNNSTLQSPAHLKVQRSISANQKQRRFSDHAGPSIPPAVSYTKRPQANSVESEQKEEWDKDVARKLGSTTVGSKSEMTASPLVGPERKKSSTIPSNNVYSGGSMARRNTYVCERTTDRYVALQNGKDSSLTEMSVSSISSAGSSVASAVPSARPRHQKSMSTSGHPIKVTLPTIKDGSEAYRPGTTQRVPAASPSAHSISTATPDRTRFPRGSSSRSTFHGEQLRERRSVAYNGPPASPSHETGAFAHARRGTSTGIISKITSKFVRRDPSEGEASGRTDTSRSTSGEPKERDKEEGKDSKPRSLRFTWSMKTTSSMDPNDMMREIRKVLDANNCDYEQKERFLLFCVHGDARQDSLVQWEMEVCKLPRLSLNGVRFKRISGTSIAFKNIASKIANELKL
TESK1, sequence (Q15569 whole entry): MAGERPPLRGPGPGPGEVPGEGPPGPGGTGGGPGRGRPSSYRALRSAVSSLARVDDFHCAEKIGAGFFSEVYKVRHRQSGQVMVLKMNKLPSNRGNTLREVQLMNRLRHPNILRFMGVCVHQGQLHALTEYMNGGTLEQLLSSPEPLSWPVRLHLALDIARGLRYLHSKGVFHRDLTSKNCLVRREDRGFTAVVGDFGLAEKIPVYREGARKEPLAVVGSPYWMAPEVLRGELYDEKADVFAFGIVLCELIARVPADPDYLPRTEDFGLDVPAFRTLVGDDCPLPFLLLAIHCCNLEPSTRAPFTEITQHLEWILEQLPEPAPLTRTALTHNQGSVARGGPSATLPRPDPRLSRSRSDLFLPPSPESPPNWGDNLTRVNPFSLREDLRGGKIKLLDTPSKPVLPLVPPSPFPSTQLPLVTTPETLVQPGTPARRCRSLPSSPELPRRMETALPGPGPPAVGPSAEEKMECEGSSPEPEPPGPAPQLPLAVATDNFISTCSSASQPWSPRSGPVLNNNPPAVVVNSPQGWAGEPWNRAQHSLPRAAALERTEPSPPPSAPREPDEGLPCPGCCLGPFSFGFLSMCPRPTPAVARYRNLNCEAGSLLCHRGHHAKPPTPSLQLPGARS
PASK, sequence (Q96RG2 whole entry): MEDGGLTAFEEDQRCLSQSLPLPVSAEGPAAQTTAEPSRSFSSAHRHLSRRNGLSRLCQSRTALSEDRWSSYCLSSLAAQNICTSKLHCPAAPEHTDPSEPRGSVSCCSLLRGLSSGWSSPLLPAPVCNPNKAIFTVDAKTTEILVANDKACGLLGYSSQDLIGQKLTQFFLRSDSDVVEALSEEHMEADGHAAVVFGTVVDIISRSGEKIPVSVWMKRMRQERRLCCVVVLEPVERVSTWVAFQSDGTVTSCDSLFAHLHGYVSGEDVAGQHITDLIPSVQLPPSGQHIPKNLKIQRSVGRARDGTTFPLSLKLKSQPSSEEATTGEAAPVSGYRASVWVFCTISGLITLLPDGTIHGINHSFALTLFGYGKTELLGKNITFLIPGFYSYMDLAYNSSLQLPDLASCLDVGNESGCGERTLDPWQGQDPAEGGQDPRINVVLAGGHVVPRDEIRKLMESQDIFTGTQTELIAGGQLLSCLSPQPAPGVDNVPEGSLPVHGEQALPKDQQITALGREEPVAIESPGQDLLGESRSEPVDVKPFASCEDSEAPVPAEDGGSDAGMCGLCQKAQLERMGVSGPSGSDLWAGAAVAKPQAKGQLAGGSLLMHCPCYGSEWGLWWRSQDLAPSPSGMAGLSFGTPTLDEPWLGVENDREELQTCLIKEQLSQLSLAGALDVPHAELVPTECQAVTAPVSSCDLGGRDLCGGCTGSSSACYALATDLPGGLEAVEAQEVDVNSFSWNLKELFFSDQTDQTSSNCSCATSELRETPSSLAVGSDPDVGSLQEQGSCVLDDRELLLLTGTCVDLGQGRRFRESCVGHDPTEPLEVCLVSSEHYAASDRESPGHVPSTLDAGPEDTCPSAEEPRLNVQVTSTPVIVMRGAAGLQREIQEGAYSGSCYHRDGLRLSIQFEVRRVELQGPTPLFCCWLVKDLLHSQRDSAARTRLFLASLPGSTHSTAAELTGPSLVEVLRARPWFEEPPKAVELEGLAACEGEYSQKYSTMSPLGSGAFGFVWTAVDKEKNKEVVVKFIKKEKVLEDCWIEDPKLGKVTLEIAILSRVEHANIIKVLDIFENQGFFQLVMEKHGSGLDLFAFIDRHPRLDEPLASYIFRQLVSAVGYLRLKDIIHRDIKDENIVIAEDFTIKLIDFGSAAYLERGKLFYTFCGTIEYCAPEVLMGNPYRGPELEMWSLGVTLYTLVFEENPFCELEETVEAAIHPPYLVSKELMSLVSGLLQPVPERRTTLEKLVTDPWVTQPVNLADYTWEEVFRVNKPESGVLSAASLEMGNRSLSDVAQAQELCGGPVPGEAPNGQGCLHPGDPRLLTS
CAMK1g, sequence (Q96NX5 whole entry): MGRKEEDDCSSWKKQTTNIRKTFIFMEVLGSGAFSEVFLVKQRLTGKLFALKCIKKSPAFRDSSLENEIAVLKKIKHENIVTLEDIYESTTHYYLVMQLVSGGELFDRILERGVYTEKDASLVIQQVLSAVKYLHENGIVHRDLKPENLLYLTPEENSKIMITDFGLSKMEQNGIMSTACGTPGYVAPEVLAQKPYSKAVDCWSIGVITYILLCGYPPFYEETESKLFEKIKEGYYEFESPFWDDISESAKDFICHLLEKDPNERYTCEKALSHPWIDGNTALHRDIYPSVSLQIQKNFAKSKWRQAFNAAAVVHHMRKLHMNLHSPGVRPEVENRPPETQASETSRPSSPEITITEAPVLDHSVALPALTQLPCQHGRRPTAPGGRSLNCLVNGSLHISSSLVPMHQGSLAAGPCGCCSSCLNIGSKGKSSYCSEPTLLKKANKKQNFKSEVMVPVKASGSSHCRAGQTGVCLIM
VRK2, sequence (Q86Y07 whole entry, species assumed): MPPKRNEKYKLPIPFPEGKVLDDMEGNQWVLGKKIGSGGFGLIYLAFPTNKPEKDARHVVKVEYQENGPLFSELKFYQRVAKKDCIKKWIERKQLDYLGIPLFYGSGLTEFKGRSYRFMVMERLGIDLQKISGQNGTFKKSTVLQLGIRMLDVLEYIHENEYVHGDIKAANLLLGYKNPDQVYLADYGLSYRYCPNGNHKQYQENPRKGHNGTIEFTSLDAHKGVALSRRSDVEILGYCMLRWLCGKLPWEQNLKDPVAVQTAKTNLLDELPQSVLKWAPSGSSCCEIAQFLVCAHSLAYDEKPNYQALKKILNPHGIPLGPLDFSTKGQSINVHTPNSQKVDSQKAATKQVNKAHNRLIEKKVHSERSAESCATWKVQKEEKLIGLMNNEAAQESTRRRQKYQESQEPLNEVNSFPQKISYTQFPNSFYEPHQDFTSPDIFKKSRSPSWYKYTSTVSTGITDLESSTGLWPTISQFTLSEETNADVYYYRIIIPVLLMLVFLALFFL
FER, sequence (P16591 whole entry): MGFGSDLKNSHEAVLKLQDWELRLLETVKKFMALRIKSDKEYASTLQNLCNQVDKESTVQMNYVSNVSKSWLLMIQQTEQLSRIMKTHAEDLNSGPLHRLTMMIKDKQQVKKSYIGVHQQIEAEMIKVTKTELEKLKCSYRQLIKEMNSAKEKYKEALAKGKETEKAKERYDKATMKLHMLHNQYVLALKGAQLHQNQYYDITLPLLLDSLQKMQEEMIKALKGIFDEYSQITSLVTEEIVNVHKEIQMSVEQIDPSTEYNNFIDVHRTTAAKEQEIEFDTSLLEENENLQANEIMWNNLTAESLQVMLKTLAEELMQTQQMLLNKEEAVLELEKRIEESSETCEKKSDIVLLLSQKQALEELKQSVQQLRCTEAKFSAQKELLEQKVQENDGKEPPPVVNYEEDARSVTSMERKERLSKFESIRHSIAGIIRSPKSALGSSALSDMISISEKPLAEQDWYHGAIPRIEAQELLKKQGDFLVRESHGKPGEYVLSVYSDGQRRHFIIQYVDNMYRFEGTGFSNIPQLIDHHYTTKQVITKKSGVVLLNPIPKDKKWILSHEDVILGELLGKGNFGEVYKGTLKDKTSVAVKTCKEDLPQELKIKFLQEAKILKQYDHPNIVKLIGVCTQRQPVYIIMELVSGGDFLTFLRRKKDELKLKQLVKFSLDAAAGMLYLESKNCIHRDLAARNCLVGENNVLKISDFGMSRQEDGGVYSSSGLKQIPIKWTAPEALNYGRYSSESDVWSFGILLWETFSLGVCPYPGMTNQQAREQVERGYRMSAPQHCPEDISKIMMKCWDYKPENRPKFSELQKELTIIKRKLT

Row | SMILES | remaining activity at 1 µM (MST1/STK4) | % enzyme activity (AURORA B) | remaining activity at 1 µM (VRK2) | % enzyme activity (PASK) | % enzyme activity (TYK1/LTK) | remaining activity at 1 µM (FER) | % enzyme activity (TYRO3/SKY) | remaining activity at 1 µM (MEKK1) | % enzyme activity (SRMS) | % enzyme activity (MUSK) | % enzyme activity (CAMK1g) | % enzyme activity (MARK1) | remaining activity at 1 µM (TESK1) | % enzyme activity (CDK8/cyclin C)
1 | COc1cc(-c2cncc(-c3ccc(N4C[C@@H](C)N(C)[C@@H](C)C4)cc3)c2C)cc(F)c1C(N)=O [Compound 26c, 2-Fluoro-6-methoxy-4-(4-methyl-5-(4-((3R,5S)-3,4,5-trimethylpiperazin-1-yl)phenyl)pyridin-3-yl)benzamide] | 103% | 104.62% | 92.5% | 98.21% | 99.99% | 86% | 93.66% | 97.7% | 95.91% | 90.22% | 107.66% | 89.90% | 105% | 92.05%
2 | COc1cc(-c2cncc(-c3ccc(N4CCN(C)CC4)cc3)c2C)cc(F)c1C(N)=O [Compound 26a, 2-Fluoro-6-methoxy-4-(4-methyl-5-(4-(4-methylpiperazin-1-yl)phenyl)pyridin-3-yl)benzamide] | 101% | 100.58% | 89.1% | 93.23% | 99.76% | 89.2% | 83.48% | 94.3% | 95.09% | 91.48% | 99.10% | 87.63% | 114% | 83.64%
